Test results from US20210122771A1, “NEW MOLECULAR TWEEZERS AGAINST NEUROLOGICAL DISORDERS AND VIRAL INFECTIONS” (The Regents of the University of California, priority 2018, published 2021).
Blank lines part the entries; values can stand above or below the molecule they belong to.

Legend:
[1] = PK screening in mice, three routes, two time points; conditions: for Blood Concentration, 40 min / Brain Concentration, 40 min / Blood Concentration, 4 h / Brain Concentration, 4 h: analyte: administered compound for 13 and 14, compound 1 in all other cases
Protocol: Each compound was administered to the mice at 2 mg/kg intravenously (I.V.), 2 mg/kg subcutaneously (S.C.), or 10 mg/kg orally (P.O.).

Full 24-h PK profile = assay type: in vivo, mice; set-up: Brain AUC: unit not given here
Protocol: Based on the 2-time-point screen results, a full 24-h PK profile has been obtained for compounds 13 and 14. In these experiments, the blood and brain levels were measured at 7 time points—0.3, 0.6, 1, 2, 4, 8, and 24 h. Data for 1 are given for reference.

[2] = Incubation with simulated gastric fluid, LC-MS/MS; conditions: incubation 1 h, LC-MS/MS every 15 min
[3] = Incubation with mouse liver microsomes, LC-MS/MS; assay type: in vitro ADME; conditions: incubation 1 h, LC-MS/MS every 15 min
[4] = Incubation with mouse plasma, LC-MS/MS; conditions: incubation 1 h, LC-MS/MS every 15 min
KAA = assay type: binding; conditions: fluorometric titration in aqueous buffer at neutral pH; read-out: Dissociation constant Kd, KAA
RGD = assay type: binding; conditions: fluorometric titration in aqueous buffer at neutral pH; read-out: Dissociation constant Kd, RGD
[5] = system: differentiated rat pheochromocytoma (PC-12) cells; assay: Self-toxicity in differentiated PC-12 cells (MTT and/or LDH); conditions: MTT and/or LDH assays, highest concentration tested 100 μM
Protocol: (§1) The highest concentration tested was 100 μM. Non-toxic compounds then were tested for their ability to inhibit the toxicity of 10 μM Aβ42 in the same assay. The parent compound 1 was used as a control in both cases.

Aβ42-induced toxicity = assay: Inhibition of Aβ42 toxicity in differentiated PC-12 cells (MTT/LDH); assay type: cell-based, rat; conditions: 10 μM Aβ42, differentiated PC-12 cells
Protocol: as §1

[6] = I.V., 24-h profile, 7 time points
[7] = P.O., 24-h profile, 7 time points
[8] = S.C., 24-h profile, 7 time points

SMILES: COc1c2c(c(OP(=O)([O-])O)c3c1C1CC3c3cc4c(cc31)C1CC4c3ccccc31)C1CC2c2cc3c(cc21)C1CC3c2ccccc21.[Na+] [Compound 14]
Bioavailability, 40 min ([1]; mouse, in vivo, 2 mg/kg): 281.1% | Bioavailability, 4 h ([1]; mouse, in vivo, 2 mg/kg): 291.2% | Bioavailability, 40 min ([1]; mouse, in vivo, 10 mg/kg): 3.9% | Bioavailability, 4 h ([1]; mouse, in vivo, 10 mg/kg): 20.3% | BBB penetration when administered I.V. (compared to 1) ([1]; mouse, in vivo, iv): substantially increased | BBB penetration, 40 min ([1]; mouse, in vivo, iv, 2 mg/kg): 10.0% | BBB penetration, 4 h ([1]; mouse, in vivo, iv, 2 mg/kg): 65.9% | BBB penetration, 40 mm ([1]; mouse, in vivo, po, 10 mg/kg): 6.1% | BBB penetration, 4 h ([1]; mouse, in vivo, po, 10 mg/kg): 2.6% | BBB penetration, 40 min ([1]; mouse, in vivo, sc, 2 mg/kg): 0.1% | BBB penetration, 4 h ([1]; mouse, in vivo, sc, 2 mg/kg): 0.4% | BBB penetration relative to compound 1 (Full 24-h PK profile; mouse, in vivo): improved | Blood AUC (Full 24-h PK profile; mouse, in vivo, iv): 1880 | Blood T1/2 (Full 24-h PK profile; mouse, in vivo, iv): 1.7 h | Brain AUC (Full 24-h PK profile; mouse, in vivo, iv): 73.2 | Brain T1/2 (Full 24-h PK profile; mouse, in vivo, iv): 0.8 h | LogBB (Full 24-h PK profile; mouse, in vivo, iv): −1.41 | Blood AUC (Full 24-h PK profile; mouse, in vivo, po): 16.1 | Blood Bioavailability (Full 24-h PK profile; mouse, in vivo, po): 0.9% | Blood T1/2 (Full 24-h PK profile; mouse, in vivo, po): 4.4 h | Brain AUC (Full 24-h PK profile; mouse, in vivo, po): 13.7 | Brain T1/2 (Full 24-h PK profile; mouse, in vivo, po): 6.5 h | LogBB (Full 24-h PK profile; mouse, in vivo, po): −0.07 | oral bioavailability relative to compound 1 (Full 24-h PK profile; mouse, in vivo, po): improved | Blood AUC (Full 24-h PK profile; mouse, in vivo, sc): 1147 | Blood Bioavailability (Full 24-h PK profile; mouse, in vivo, sc): 61.0% | Blood T1/2 (Full 24-h PK profile; mouse, in vivo, sc): 14.8 h | Brain AUC (Full 24-h PK profile; mouse, in vivo, sc): 4.4 | LogBB (Full 24-h PK profile; mouse, in vivo, sc): 0

hydrolysis in simulated gastric fluid [2]: hydrolyzed quantitatively | hydrolysis in mouse liver microsomes [3]: hydrolyzed quantitatively | hydrolysis in mouse plasma [4]: hydrolyzed quantitatively
SMILES: O=C(O)Cc1ccccc1Nc1c(Cl)cccc1Cl [diclofenac]

SMILES: C#CCCOP(=O)(O)Oc1c2c(c(OP(=O)(O)O)c3c1C1CC3c3cc4c(cc31)C1CC4c3ccccc31)C1CC2c2cc3c(cc21)C1CC3c2ccccc21 [Compound 12]
Kd (KAA): 20 µM | Kd (RGD): 60 µM

SMILES: O=P([O-])(O)Oc1c2c(c(O)c3c1C1CC3c3cc4c(cc31)C1CC4c3ccccc31)C1CC2c2cc3c(cc21)C1CC3c2ccccc21.[Na+] [Compound 13]
Self-toxicity [5]: Non-toxic | Blood Concentration, 40 min ([1]; mice, 2 mg/kg I.V., 40 min): 55 ng/mL | Brain Concentration, 40 min ([1]; mice, 2 mg/kg I.V., 40 min): 3.58 ng/g | BBB penetration, 40 min ([1]; mice, 2 mg/kg I.V., 40 min, percent ratio between brain and blood concentration): 6.5% | Blood Concentration, 4 h ([1]; mice, 2 mg/kg I.V., 4 h): 53 ng/mL | Brain Concentration, 4 h ([1]; mice, 2 mg/kg I.V., 4 h): 1.28 ng/g | BBB penetration, 4 h ([1]; mice, 2 mg/kg I.V., 4 h, percent ratio between brain and blood concentration): 2.4% | Blood Concentration, 40 min ([1]; mice, 2 mg/kg S.C., 40 min): 98 ng/mL | Brain Concentration, 40 min ([1]; mice, 2 mg/kg S.C., 40 min): 1.19 ng/g | BBB penetration, 40 min ([1]; mice, 2 mg/kg S.C., 40 min, percent ratio between brain and blood concentration): 1.2% | Bioavailability, 40 min ([1]; mice, 2 mg/kg S.C., 40 min, percent ratio of the I.V. blood concentration): 178.2% | Blood Concentration, 4 h ([1]; mice, 2 mg/kg S.C., 4 h): 50 ng/mL | Brain Concentration, 4 h ([1]; mice, 2 mg/kg S.C., 4 h): 1.69 ng/g | BBB penetration, 4 h ([1]; mice, 2 mg/kg S.C., 4 h, percent ratio between brain and blood concentration): 3.4% | Bioavailability, 4 h ([1]; mice, 2 mg/kg S.C., 4 h, percent ratio of the I.V. blood concentration): 94.3% | Blood Concentration, 40 min ([1]; mice, 10 mg/kg P.O., 40 min): 0.0 ng/mL | Brain Concentration, 40 min ([1]; mice, 10 mg/kg P.O., 40 min): 1.79 ng/g | BBB penetration, 40 mm ([1]; mice, 10 mg/kg P.O., 40 min, percent ratio between brain and blood concentration): 0.0% | Bioavailability, 40 min ([1]; mice, 10 mg/kg P.O., 40 min, percent ratio of the I.V. blood concentration): 0.0% | Blood Concentration, 4 h ([1]; mice, 10 mg/kg P.O., 4 h): 0.3 ng/mL | Brain Concentration, 4 h ([1]; mice, 10 mg/kg P.O., 4 h): 0.26 ng/g | BBB penetration, 4 h ([1]; mice, 10 mg/kg P.O., 4 h, percent ratio between brain and blood concentration): 100% | Bioavailability, 4 h ([1]; mice, 10 mg/kg P.O., 4 h, percent ratio of the I.V. blood concentration): 0.5% | LogBB (Full 24-h PK profile; I.V., 24-h profile): −2.06 | Blood T1/2 (Full 24-h PK profile; [6]): 1.2 h | Brain AUC (Full 24-h PK profile; [6]): 3.71 | Brain T1/2 (Full 24-h PK profile; [6]): 1.5 h | Blood AUC (Full 24-h PK profile; I.V., 24-h profile, 7 time points, in ng·h/mL): 423 | Blood Bioavailability (Full 24-h PK profile; P.O., 24-h profile): 21.6% | LogBB (Full 24-h PK profile; P.O., 24-h profile): −1.84 | Blood T1/2 (Full 24-h PK profile; [7]): 16 h | Brain AUC (Full 24-h PK profile; [7]): 1.33 | Brain T1/2 (Full 24-h PK profile; [7]): 3.1 h | Blood AUC (Full 24-h PK profile; P.O., 24-h profile, 7 time points, in ng·h/mL): 91.2 | Blood Bioavailability (Full 24-h PK profile; S.C., 24-h profile): 246.7% | LogBB (Full 24-h PK profile; S.C., 24-h profile): 3.31 | Blood T1/2 (Full 24-h PK profile; [8]): 11.1 h | Brain T1/2 (Full 24-h PK profile; [8]): 1.1 h | Blood AUC (Full 24-h PK profile; S.C., 24-h profile, 7 time points, in ng·h/mL): 1043 | BBB penetration relative to compound 1 (Full 24-h PK profile; full 24-h PK profile): improved | protective effect against Aβ42-induced toxicity compared to 1 (Aβ42-induced toxicity): higher protective effect | IC50 (Aβ42-induced toxicity; LDH assay, read-out: Inhibition of Aβ42 toxicity, IC50 (LDH)): 16 µM
